We go through five compounds from ChEMBL document CHEMBL3352328, “Synthesis and biological evaluation of a new series of N-acyldiamines as potential antibacterial and antifungal agents” (2014).

In one test the test system is Candida albicans. The experiment in a line: Antifungal activity against Candida albicans ATCC 18804 by broth microdilution method. It counts as functional. A general note: Broth dilution looks for growth in wells or tubes with falling amounts of substance.
A further test has as its system Candida parapsilosis. The experiment in a line: Antifungal activity against Candida parapsilosis ATCC 22019 by broth microdilution method. It counts as functional. The note with it: Lodderomyces parapsilosis.
The subject of the next test is Candida tropicalis. The test is described as follows: Antifungal activity against Candida tropicalis ATCC 750 by broth microdilution method. It counts as functional.
The test system of a further test is Nakaseomyces glabratus. The experiment in a line: Antifungal activity against Candida glabrata ATCC 90030 by broth microdilution method. It counts as functional.
The test system of test [1] is Pseudomonas aeruginosa. The experiment in a line: Antimicrobial activity against Pseudomonas aeruginosa ATCC 27853 by broth dilution method. It counts as functional.
Test [2] concerns Escherichia coli. The test is described as follows: Bactericidal activity against Escherichia coli ATCC 11229 after 24 hrs. It counts as functional. The conditions noted are these: ATCC 11229, 24 h.
Test [3] concerns Staphylococcus aureus. The experiment in a line: Bacteriostatic activity against Staphylococcus aureus ATCC 29213 after 24 hrs. It counts as functional, organism-based.
The test system of test [4] is Staphylococcus epidermidis. The test is described as follows: Antimicrobial activity against Staphylococcus epidermidis ATCC 12228 by broth dilution method. It counts as functional.
The test system of test [5] is Escherichia coli. The experiment in a line: Antimicrobial activity against Escherichia coli ATCC 11229 by broth dilution method. It counts as functional.
For test [6], the system named is Staphylococcus aureus. The test is described as follows: Antimicrobial activity against Staphylococcus aureus ATCC 29213 by broth dilution method. It counts as functional.
The test system of test [7] is Staphylococcus epidermidis. The experiment in a line: Bactericidal activity against Staphylococcus epidermidis ATCC 12228 after 24 hrs. It counts as functional. The conditions noted are these: ATCC 12228, 24 h.
Test [8] deals with Escherichia coli. The experiment in a line: Bacteriostatic activity against Escherichia coli ATCC 11229 after 24 hrs. It counts as functional, organism-based.
In test [9] the test system is Pseudomonas aeruginosa. The test is described as follows: Bacteriostatic activity against Pseudomonas aeruginosa ATCC 27853 after 24 hrs. It counts as functional, organism-based.
The subject of test [10] is Staphylococcus aureus. The test is described as follows: Bactericidal activity against Staphylococcus aureus ATCC 29213 after 24 hrs. It counts as functional. The note with it: ATCC 29213, 24 h.
In test [11] the test system is Pseudomonas aeruginosa. The experiment in a line: Bactericidal activity against Pseudomonas aeruginosa ATCC 27853 after 24 hrs. It counts as functional. The note with it: ATCC 27853, 24 h.

The structures appear in SMILES notation. Converted amounts (≈) assume the structure as drawn. The source made the active and inactive calls.

For orientation: MIC means the smallest concentration in the dilution series that meets the test's criterion for growth inhibition. A high value points to weaker potency. `CCC(C)n1ncn(-c2ccc(N3CCN(c4ccc(OCC5COC(Cn6cncn6)(c6ccc(Cl)cc6Cl)O5)cc4)CC3)cc2)c1=O` (configuration not stated) [ITRACONAZOLE]: the MIC was 0.5 µg/mL (≈ 0.709 µM) against Candida albicans, more than 512 µg/mL against Candida parapsilosis, more than 512 µg/mL in the test on Candida tropicalis and 256 µg/mL (≈ 363 µM) against Nakaseomyces glabratus.

By MBC is commonly meant the smallest concentration meeting the test's criterion for killing. Consider `CCCCCCCCCCCCCCCC(=O)NCCCCN`, for which the MIC was 8 µg/mL (≈ 24.5 µM) with Candida albicans; more than 1020 µg/mL against Pseudomonas aeruginosa [1]; 128 µg/mL (≈ 392 µM) against Candida parapsilosis; 64 µg/mL (≈ 196 µM) in the test with Candida tropicalis; 16 µg/mL (≈ 49 µM) in test [4]; 32 µg/mL (≈ 98 µM) with Nakaseomyces glabratus. For the same compound, the results for the MIC against Escherichia coli [5] and in the test with Staphylococcus aureus [6] were 1020 µg/mL (≈ 3140 µM) and 512 µg/mL (≈ 1570 µM), respectively. Also, the MBC with Escherichia coli [2] worked out at 1020 µg/mL (≈ 3140 µM); in test [7], 128 µg/mL (≈ 392 µM). In the test with Staphylococcus aureus [3], the outcome was Active.

As to `CCCCCCCC/C=C\CCCCCCCC(=O)NCCCCN`, the MIC was 2 µg/mL (≈ 5.67 µM) against Candida albicans; more than 1020 µg/mL in the test with Pseudomonas aeruginosa [1]; 1 µg/mL (≈ 2.84 µM) with Candida parapsilosis; 4 µg/mL (≈ 11.3 µM) against Candida tropicalis; 4 µg/mL (≈ 11.3 µM) in test [4]; 2 µg/mL (≈ 5.67 µM) in the test on Nakaseomyces glabratus. Besides, the MIC in the test with Escherichia coli [5] turned out to be 8 µg/mL (≈ 22.7 µM); in the test on Staphylococcus aureus [6], 16 µg/mL (≈ 45.4 µM). Further, the result with Escherichia coli [8], in the test on Staphylococcus aureus [3] and in the test with Pseudomonas aeruginosa [9] was Active. In addition, the MBC in [7] is 128 µg/mL (≈ 363 µM).

On to `CCCCCCCCCCCCCCCC(=O)NCCN`, for which the MIC was 4 µg/mL (≈ 13.4 µM) in the test with Candida albicans; more than 1020 µg/mL with Pseudomonas aeruginosa [1]; 4 µg/mL (≈ 13.4 µM) with Candida parapsilosis; 16 µg/mL (≈ 53.6 µM) in the test on Candida tropicalis; more than 1020 µg/mL in test [4]; 8 µg/mL (≈ 26.8 µM) with Nakaseomyces glabratus. In addition, the MIC against Escherichia coli [5] and in the test on Staphylococcus aureus [6] was more than 1020 µg/mL throughout.

In the case of `CCCCCCCCCCCCCC(=O)NCCCCN`, the MIC in the test on Candida albicans was 16 µg/mL (≈ 53.6 µM); in the test on Pseudomonas aeruginosa [1], 1020 µg/mL (≈ 3430 µM); in the test on Candida parapsilosis, 128 µg/mL (≈ 429 µM); in the test on Candida tropicalis, 64 µg/mL (≈ 214 µM); in [4], 16 µg/mL (≈ 53.6 µM); with Nakaseomyces glabratus, 32 µg/mL (≈ 107 µM). The minimal inhibitory concentration (MIC) in the test on Escherichia coli [5] was found to be 256 µg/mL (≈ 858 µM); against Staphylococcus aureus [6], 16 µg/mL (≈ 53.6 µM). In addition, the MBC is 1020 µg/mL (≈ 3430 µM) against Escherichia coli [2], 32 µg/mL (≈ 107 µM) in [7], 1020 µg/mL (≈ 3430 µM) against Staphylococcus aureus [10] and 1020 µg/mL (≈ 3430 µM) in the test with Pseudomonas aeruginosa [11].
